The values that follow come from patent US8685999B2, “Beta carboline sulphonylurea derivatives as EP4 receptor antagonists” (Merck Sharp & Dohme Corp., priority 2008, dated 2014).

The structures appear in SMILES notation. Where only a bound is given, the exact number is not on record here.

T1 sequence (P35408 whole entry): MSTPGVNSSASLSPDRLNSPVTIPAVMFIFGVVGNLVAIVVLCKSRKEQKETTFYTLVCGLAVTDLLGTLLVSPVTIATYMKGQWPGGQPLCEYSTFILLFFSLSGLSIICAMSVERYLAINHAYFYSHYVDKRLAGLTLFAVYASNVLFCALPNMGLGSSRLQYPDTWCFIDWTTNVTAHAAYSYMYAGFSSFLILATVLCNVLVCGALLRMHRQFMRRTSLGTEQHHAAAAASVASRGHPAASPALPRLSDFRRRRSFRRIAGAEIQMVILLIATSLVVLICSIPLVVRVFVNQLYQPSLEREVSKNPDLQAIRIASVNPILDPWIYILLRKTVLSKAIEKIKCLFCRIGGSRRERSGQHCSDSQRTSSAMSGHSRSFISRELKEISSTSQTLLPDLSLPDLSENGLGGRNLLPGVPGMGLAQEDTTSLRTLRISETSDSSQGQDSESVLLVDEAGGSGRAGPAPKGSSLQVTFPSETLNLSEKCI

The first assay addresses T1, EP4 (Homo sapiens, UniProt P35408).
T1 construct: expressed in transfected cells; membranes prepared by differential centrifugation
As to the kind of experiment: Prostanoid receptor binding assay (radioligand displacement binding assay). To be noted: column marked X when IC50 < 1; read-out: IC50 (nm) X < 1. On the procedure:
Prostanoid receptor cDNAs corresponding to full length coding sequences are subcloned into the appropriate sites of mammalian expression vectors and transfected into HEK 293(ebna) cells. HEK 293(ebna) cells expressing the individual cDNAs are grown under selection and individual colonies are isolated after 2-3 weeks of growth using the cloning ring method and subsequently expanded into clonal cell lines.
Transfected HEK 293(ebna) cells are maintained in culture, harvested and membranes are prepared by differential centrifugation, following lysis of the cells in the presence of protease inhibitors, for use in receptor binding assays. Prostanoid receptor binding assays (for DP1, DP2 (CRTH2), EP1, EP2, EP3-III, EP4, FP, IP, and TP) are performed in 10 mM MES/KOH (pH 6.0) (EPs, FP and TP) or 10 mM HEPES/KOH (pH 7.4) (DPs and IP), containing 1 mM EDTA, 2.5-30 mM divalent cation and the appropriate radio-ligand. Synthetic compounds are added in DMSO which is kept constant at 1% (v/v) in all incubations. The reaction is initiated by addition of membrane protein. Non-specific binding is determined in the presence of 10 μM of the corresponding non-radioactive prostanoid. Incubations are conducted for 60-120 min at room temperature or 30° C. and terminated by rapid filtration. Specific binding is calculated by subtracting non specific binding from total binding. The residual specific binding at each ligand concentration is calculated and expressed as a function of ligand concentration in order to construct sigmoidal concentration-response curves. The binding affinity of the compounds is determined by calculating the equilibrium inhibition constant (Ki) from the equation Ki=InPt/1+[radio-ligand]/Kd where Kd is the equilibrium dissociation constant for the radio-ligand:receptor interaction and InPt is the inflection point of the dose-response curves.
Abramovitz, M. et al., Biochem, Biophys. Acta, 2000, 1483, pp. 285.
For orientation: Displacement assays read how much labelled ligand stays bound in the presence of the test substance.
Turning to `CN1CCc2c(n(-c3ccc(CC4(NC(=O)NS(=O)(=O)c5ccc(Cl)cc5)CC4)cc3)c3ccc(-c4ccccc4F)cc23)C1=O` [Example 1-23, 4-chloro-N-{[(1-{4-[6-(2-fluorophenyl)-2-methyl-1-oxo-1,2,3,4-tetrahydro-9H-beta-carbolin-9-yl]benzyl}cyclopropyl)amino]carbonyl}benzenesulfonamide], the IC50 (in general, the point on the concentration scale where inhibition reaches its midpoint) was under 1 nM.
Still for that read-out and setting: under `CN1CCc2c(n(-c3ccc(CC4(NC(=O)NS(=O)(=O)c5ccc(Cl)cc5)CC4)cc3)c3ccc(-c4cccnc4)cc23)C1=O` [Example 1-24, 4-chloro-N-[({1-[4-(2-methyl-1-oxo-6-pyridin-3-yl-1,2,3,4-tetrahydro-9H-beta-carbolin-9-yl)benzyl]cyclopropyl}amino)carbonyl]benzenesulfonamide] stands under 1 nM; under `CN1CCc2c(n(-c3ccc(CC4(NC(=O)NS(=O)(=O)c5ccc(Cl)cc5)CC4)cc3)c3ccc(-c4ccsc4)cc23)C1=O` [Example 1-25, 4-chloro-N-{[(1-{4-[2-methyl-1-oxo-6-(3-thienyl)-1,2,3,4-tetrahydro-9H-beta-carbolin-9-yl]benzyl}cyclopropyl)amino]carbonyl}benzenesulfonamide], under 1 nM; under `CN1CCc2c(n(-c3ccc(CC4(NC(=O)NS(=O)(=O)c5ccc(Cl)cc5)CC4)cc3)c3ccc(-c4ccccn4)cc23)C1=O` [Example 1-26, 4-chloro-N-[({1-[4-(2-methyl-1-oxo-6-pyridin-2-yl-1,2,3,4-tetrahydro-9H-beta-carbolin-9-yl)benzyl]cyclopropyl}amino)carbonyl]benzenesulfonamide], under 1 nM.
The same measure, in the same setting: the same measure for `Cc1ccccc1-c1ccc2c(c1)c1c(n2-c2ccc(CC3(NC(=O)NS(=O)(=O)c4ccc(Cl)cc4)CC3)cc2)C(=O)N(C)CC1` [Example 1-27, 4-chloro-N-{[(1-{4-[2-methyl-6-(2-methylphenyl)-1-oxo-1,2,3,4-tetrahydro-9H-beta-carbolin-9-yl]benzyl}cyclopropyl)amino]carbonyl}benzenesulfonamide]: under 1 nM; for `Cc1cc(C)c2c3c(n(-c4ccc(CC5(NC(=O)NS(=O)(=O)c6ccc(Cl)cc6)CC5)cc4)c2c1)C(=O)N(C)CC3` [Example 1-28, 4-chloro-N-[({1-[4-(2,5,7-trimethyl-1-oxo-1,2,3,4-tetrahydro-9H-beta-carbolin-9-yl)benzyl]cyclopropyl}amino)carbonyl]benzenesulfonamide]: under 1 nM; for `CN1CCc2c(n(-c3ccc(CC4(NC(=O)NS(=O)(=O)c5c(Cl)cccc5Cl)CC4)cc3)c3ccc(-c4ccccc4)cc23)C1=O` [Example 1-29, 2,6-dichloro-N-[({1-[4-(2-methyl-1-oxo-6-phenyl-1,2,3,4-tetrahydro-9H-beta-carbolin-9-yl)benzyl]cyclopropyl}amino)carbonyl]benzenesulfonamide]: under 1 nM.
Same read-out and setting: under `COc1cccc(OC)c1S(=O)(=O)NC(=O)NC1(Cc2ccc(-n3c4c(c5cc(-c6ccccc6)ccc53)CCN(C)C4=O)cc2)CC1` [Example 1-30, 2,6-dimethoxy-N-[({1-[4-(2-methyl-1-oxo-6-phenyl-1,2,3,4-tetrahydro-9H-beta-carbolin-9-yl)benzyl]cyclopropyl}amino)carbonyl]benzenesulfonamide] stands under 1 nM; under `CN1CCc2c(n(-c3ccc(CCNC(=O)NS(=O)(=O)c4ccc(Cl)cc4)cc3)c3ccc(S(C)(=O)=O)cc23)C1=O` [Example 1-31, 4-chloro-N-{[(2-{4-[2-methyl-6-(methylsulfonyl)-1-oxo-1,2,3,4-tetrahydro-9H-beta-carbolin-9-yl]phenyl}ethyl)amino]carbonyl}benzenesulfonamide], under 1 nM.
Turning to `CN1CCc2c(n(-c3ccc(CC4(NC(=O)NS(=O)(=O)c5ccc(Cl)cc5)CC4)cc3)c3ccc(S(C)(=O)=O)cc23)C1=O` [Example 1-34, 4-chloro-N-{[(1-{4-[2-methyl-6-(methylsulfonyl)-1-oxo-1,2,3,4-tetrahydro-9H-beta-carbolin-9-yl]benzyl}cyclopropyl)amino]carbonyl}benzenesulfonamide], the IC50 was under 1 nM.
On the same count and under the same terms, under `CN1CCc2c(n(-c3ccc(CCNC(=O)NS(=O)(=O)c4ccc(Cl)cc4)cc3)c3ccc(-c4ccc(S(C)(=O)=O)cc4)cc23)C1=O` [Example 1-35, 4-chloro-N-({[2-(4-{2-methyl-6-[4-(methylsulfonyl)phenyl]-1-oxo-1,2,3,4-tetrahydro-9H-beta-carbolin-9-yl}phenyl)ethyl]amino}carbonyl)benzenesulfonamide] stands under 1 nM; under `CN1CCc2c(n(-c3ccc(CCNC(=O)NS(=O)(=O)c4ccc(Cl)cc4)cc3)c3ccc(-c4cccc(S(C)(=O)=O)c4)cc23)C1=O` [Example 1-36, 4-chloro-N-({[2-(4-{2-methyl-6-[3-(methylsulfonyl)phenyl]-1-oxo-1,2,3,4-tetrahydro-9H-beta-carbolin-9-yl}phenyl)ethyl]amino}carbonyl)benzenesulfonamide], under 1 nM.
Take `CN1CCc2c(n(-c3ccc(CC4(NC(=O)NS(=O)(=O)c5ccc(Cl)cc5)CC4)cc3)c3ccc(S(=O)(=O)c4ccccc4)cc23)C1=O` [Example 1-37, 4-chloro-N-{[(1-{4-[2-methyl-1-oxo-6-(phenylsulfonyl)-1,2,3,4-tetrahydro-9H-beta-carbolin-9-yl]benzyl}cyclopropyl)amino]carbonyl}benzenesulfonamide]: the concentration for half-maximal inhibition (IC50) is under 1 nM.
The same measure, in the same setting: the same measure for `CN1CCc2c(n(-c3ccc(CC4(NC(=O)NS(=O)(=O)c5ccc(Cl)cc5)CC4)cc3)c3ccc(C4CC4)cc23)C1=O` [Example 2-1, 4-chloro-N-[({1-[4-(6-cyclopropyl-2-methyl-1-oxo-1,2,3,4-tetrahydro-9H-beta-carbolin-9-yl)benzyl]cyclopropyl}amino)carbonyl]benzenesulfonamide]: under 1 nM; for `CN1CCc2c(n(-c3ccc(CCNC(=O)NS(=O)(=O)c4ccc(Cl)cc4)cc3)c3ccc(C4CC4)cc23)C1=O` [Example 2-2, 4-chloro-N-[({2-[4-(6-cyclopropyl-2-methyl-1-oxo-1,2,3,4-tetrahydro-9H-beta-carbolin-9-yl)phenyl]ethyl}amino)carbonyl]benzenesulfonamide]: under 1 nM.
Still for that read-out and setting: under `CN1CCc2c(n(-c3ccc(CCNC(=O)NS(=O)(=O)c4ccc(Cl)cc4)cc3)c3cccc(C4CC4)c23)C1=O` [Example 2-3, 4-chloro-N-[({2-[4-(5-cyclopropyl-2-methyl-1-oxo-1,2,3,4-tetrahydro-9H-beta-carbolin-9-yl)phenyl]ethyl}amino)carbonyl]benzenesulfonamide] stands under 1 nM.

Still in this assay, the particulars now being: column marked X when IC50 > 5; read-out: IC50 (nm) X > 5.
For `CN1CCc2c(n(-c3ccc(CCNC(=O)NS(=O)(=O)c4ccc(Cl)cc4)cc3)c3cccc(S(C)(=O)=O)c23)C1=O` [Example 1-33, 4-chloro-N-{[(2-{4-[2-methyl-5-(methylsulfonyl)-1-oxo-1,2,3,4-tetrahydro-9H-beta-carbolin-9-yl]phenyl}ethyl)amino]carbonyl}benzenesulfonamide], the half-maximal inhibitory concentration (IC50) is over 5 nM.

Still in this assay, the particulars now being: column marked X when IC50 between 1 and 5; read-out: IC50 (nm) 1 < X < 5.
For `CN1CCc2c(n(-c3ccc(CCNC(=O)NS(=O)(=O)c4ccc(Cl)cc4)cc3)c3cc(S(C)(=O)=O)ccc23)C1=O` [Example 1-32, 4-chloro-N-{[(2-{4-[2-methyl-7-(methylsulfonyl)-1-oxo-1,2,3,4-tetrahydro-9H-beta-carbolin-9-yl]phenyl}ethyl)amino]carbonyl}benzenesulfonamide], the IC50 lay within 1 to 5 nM.

Staying with this assay, now noted: radioligand displacement binding assay; read-out: IC50.
Consider `CN1CCc2c(n(-c3ccc(CCNC(=O)NS(=O)(=O)c4ccc(Cl)cc4)cc3)c3cc(S(C)(=O)=O)ccc23)C1=O` [Example 1-32, 4-chloro-N-{[(2-{4-[2-methyl-7-(methylsulfonyl)-1-oxo-1,2,3,4-tetrahydro-9H-beta-carbolin-9-yl]phenyl}ethyl)amino]carbonyl}benzenesulfonamide], for which the IC50 fell in the range of 1 to 5 nM.
For `CN1CCc2c(n(-c3ccc(CCNC(=O)NS(=O)(=O)c4ccc(Cl)cc4)cc3)c3cccc(S(C)(=O)=O)c23)C1=O` [Example 1-33, 4-chloro-N-{[(2-{4-[2-methyl-5-(methylsulfonyl)-1-oxo-1,2,3,4-tetrahydro-9H-beta-carbolin-9-yl]phenyl}ethyl)amino]carbonyl}benzenesulfonamide], the IC50 is over 5 nM.
